From ChEMBL document CHEMBL1201862, “PubChem BioAssay data set” (2004)
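Method: 48-hour compound exposure of cells in 96-well plates, five concentrations, linear interpolation of endpoints. The concentration for 50% growth inhibition is given as GI50.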 Active and inactive are the calls of the source. Cut-off read from the data, not from the text of the source: active = GI50 up to about 1.1 µM and inactive = higher.

Tests used:
Experiment in all cases: NCI anticancer screen, dose series, 48 h
[1] = tested on: EKVX
[2] = tested on: HCT-15
[3] = tested on: KM12
[4] = tested on: UACC-257
[5] = tested on: ACHN
[6] = tested on: OVCAR-4
[7] = tested on: HOP-92
[8] = tested on: LOX IMVI
[9] = tested on: NCI-H460
[10] = tested on: SK-MEL-28
[11] = tested on: OVCAR-5
[12] = tested on: MDA-MB-435
[13] = tested on: SF-295
[14] = tested on: U-251
[15] = tested on: IGROV-1
[16] = tested on: MDA-MB-231
[17] = tested on: M14
[18] = tested on: UO-31
[19] = tested on: HOP-62
[20] = tested on: COLO 205
[21] = tested on: A549
[22] = tested on: MCF7
[23] = tested on: NCI/ADR-RES
[24] = tested on: SNB-19
[25] = tested on: CCRF-CEM
[26] = tested on: NCI-H226
[27] = tested on: SNB-75
[28] = tested on: SF-268
[29] = tested on: 786-0
[30] = tested on: SK-MEL-5
[31] = tested on: OVCAR-8
[32] = tested on: UACC-62
[33] = tested on: HT-29
[34] = tested on: HCC 2998
[35] = tested on: MDA-N
[36] = tested on: SK-OV-3
[37] = tested on: SF-539
[38] = tested on: DU-145
[39] = tested on: SR
[40] = tested on: NCI-H522
[41] = tested on: RPMI-8226
[42] = tested on: SK-MEL-2
[43] = tested on: OVCAR-3
[44] = tested on: HCT-116
[45] = tested on: NCI-H23
[46] = tested on: TK-10
[47] = tested on: HL-60
[48] = tested on: SN12C
[49] = tested on: PC-3
[50] = tested on: CAKI-1
[51] = tested on: SW-620
[52] = tested on: A498
[53] = tested on: Hs-578T
[54] = tested on: T47D
[55] = tested on: BT-549
[56] = tested on: RXF 393
[57] = tested on: Malme-3M
[58] = tested on: MOLT-4
[59] = tested on: K562

Compound: CC(=O)OCC1=CC2OC(=O)C3=COC(OC4OC(CO)C(O)C(O)C4O)C1C32 (centres undefined)
- GI50 [1]: > 100 µM (inactive)
- GI50 [2]: > 100 µM
- GI50 [3]: > 100 µM (inactive)
- GI50 [4]: > 100 µM (inactive)
- GI50 [5]: > 100 µM (inactive)
- GI50 [6]: > 100 µM (inactive)
- GI50 [7]: > 100 µM (inactive)
- GI50 [8]: > 100 µM (inactive)
- GI50 [9]: > 10 µM (inactive)
- GI50 [10]: > 100 µM (inactive)
- GI50 [11]: > 100 µM (inactive)
- GI50 [12]: > 100 µM (inactive)
- GI50 [13]: > 100 µM (inactive)
- GI50 [14]: > 100 µM (inactive)
- GI50 [15]: > 100 µM (inactive)
- GI50 [16]: > 100 µM (inactive)
- GI50 [17]: > 100 µM (inactive)
- GI50 [18]: > 100 µM (inactive)
- GI50 [19]: > 100 µM (inactive)
- GI50 [20]: > 100 µM (inactive)
- GI50 [21]: > 100 µM (inactive)
- GI50 [22]: > 100 µM (inactive)
- GI50 [23]: > 100 µM (inactive)
- GI50 [24]: > 100 µM (inactive)
- GI50 [25]: > 100 µM (inactive)
- GI50 [26]: > 100 µM (inactive)
- GI50 [27]: > 100 µM (inactive)
- GI50 [28]: > 100 µM (inactive)
- GI50 [29]: > 100 µM (inactive)
- GI50 [30]: > 100 µM (inactive)
- GI50 [31]: > 100 µM (inactive)
- GI50 [32]: > 100 µM (inactive)
- GI50 [33]: > 100 µM (inactive)
- GI50 [34]: > 100 µM (inactive)
- GI50 [35]: > 100 µM (inactive)
- GI50 [36]: > 100 µM (inactive)
- GI50 [37]: > 100 µM (inactive)
- GI50 [38]: > 100 µM (inactive)
- GI50 [39]: 57 µM (inactive)
- GI50 [40]: > 100 µM (inactive)
- GI50 [41]: > 100 µM (inactive)
- GI50 [42]: > 100 µM (inactive)
- GI50 [43]: > 100 µM (inactive)
- GI50 [44]: > 100 µM (inactive)
- GI50 [45]: > 100 µM (inactive)
- GI50 [46]: > 100 µM (inactive)
- GI50 [47]: > 100 µM (inactive)
- GI50 [48]: > 100 µM (inactive)
- GI50 [49]: > 100 µM (inactive)
- GI50 [50]: > 100 µM (inactive)
- GI50 [51]: > 100 µM (inactive)
- GI50 [52]: > 100 µM (inactive)
- GI50 [53]: > 100 µM (inactive)
- GI50 [54]: > 100 µM (inactive)
- GI50 [55]: > 100 µM (inactive)

Compound: CNc1ccc(OC)cc1S(=O)(=O)c1ccccc1[N+](=O)[O-]
- GI50 [1]: 47.1 µM (inactive)
- GI50 [2]: > 100 µM
- GI50 [56]: > 100 µM (inactive)
- GI50 [5]: > 100 µM (inactive)
- GI50 [6]: > 100 µM (inactive)
- GI50 [8]: > 100 µM (inactive)
- GI50 [9]: > 100 µM (inactive)
- GI50 [10]: > 100 µM (inactive)
- GI50 [11]: > 100 µM (inactive)
- GI50 [12]: > 100 µM (inactive)
- GI50 [13]: > 100 µM (inactive)
- GI50 [14]: > 100 µM (inactive)
- GI50 [15]: > 100 µM (inactive)
- GI50 [16]: > 100 µM (inactive)
- GI50 [17]: > 100 µM (inactive)
- GI50 [18]: > 100 µM (inactive)
- GI50 [19]: > 100 µM (inactive)
- GI50 [20]: > 100 µM (inactive)
- GI50 [21]: 98.2 µM (inactive)
- GI50 [57]: 82.8 µM (inactive)
- GI50 [22]: > 100 µM (inactive)
- GI50 [23]: 69.8 µM (inactive)
- GI50 [24]: > 100 µM (inactive)
- GI50 [25]: 26.7 µM (inactive)
- GI50 [26]: > 100 µM (inactive)
- GI50 [27]: > 100 µM (inactive)
- GI50 [28]: > 100 µM (inactive)
- GI50 [29]: > 100 µM (inactive)
- GI50 [30]: 51.3 µM (inactive)
- GI50 [31]: > 100 µM (inactive)
- GI50 [32]: > 100 µM (inactive)
- GI50 [33]: > 100 µM (inactive)
- GI50 [34]: > 100 µM (inactive)
- GI50 [35]: > 100 µM (inactive)
- GI50 [36]: > 100 µM (inactive)
- GI50 [37]: > 100 µM (inactive)
- GI50 [38]: > 100 µM (inactive)
- GI50 [39]: > 100 µM (inactive)
- GI50 [40]: 92.3 µM (inactive)
- GI50 [58]: 27 µM (inactive)
- GI50 [41]: > 100 µM (inactive)
- GI50 [42]: > 100 µM (inactive)
- GI50 [43]: > 100 µM (inactive)
- GI50 [44]: > 100 µM (inactive)
- GI50 [45]: > 100 µM (inactive)
- GI50 [46]: > 100 µM (inactive)
- GI50 [47]: > 100 µM (inactive)
- GI50 [59]: 43.2 µM (inactive)
- GI50 [48]: > 100 µM (inactive)
- GI50 [49]: 52.7 µM (inactive)
- GI50 [51]: > 100 µM (inactive)
- GI50 [52]: 47.4 µM (inactive)
- GI50 [53]: > 100 µM (inactive)
- GI50 [54]: 49.8 µM (inactive)
- GI50 [55]: 75.2 µM (inactive)

Compound: COc1cc(C(=O)CBr)c(OC)cc1C
- GI50 [1]: > 100 µM (inactive)
- GI50 [2]: > 100 µM
- GI50 [3]: > 100 µM (inactive)
- GI50 [56]: > 100 µM (inactive)
- GI50 [4]: > 100 µM (inactive)
- GI50 [5]: > 100 µM (inactive)
- GI50 [8]: > 100 µM (inactive)
- GI50 [10]: > 100 µM (inactive)
- GI50 [11]: > 100 µM (inactive)
- GI50 [12]: > 100 µM (inactive)
- GI50 [13]: > 100 µM (inactive)
- GI50 [14]: > 100 µM (inactive)
- GI50 [15]: > 100 µM (inactive)
- GI50 [16]: > 100 µM (inactive)
- GI50 [17]: > 100 µM (inactive)
- GI50 [18]: 97.3 µM (inactive)
- GI50 [19]: > 100 µM (inactive)
- GI50 [20]: > 100 µM (inactive)
- GI50 [21]: > 100 µM (inactive)
- GI50 [57]: > 100 µM (inactive)
- GI50 [22]: > 100 µM (inactive)
- GI50 [23]: > 100 µM (inactive)
- GI50 [24]: > 100 µM (inactive)
- GI50 [25]: > 100 µM (inactive)
- GI50 [26]: 75.5 µM (inactive)
- GI50 [27]: > 10 µM (inactive)
- GI50 [28]: > 100 µM (inactive)
- GI50 [29]: > 100 µM (inactive)
- GI50 [30]: 52.7 µM (inactive)
- GI50 [31]: > 100 µM (inactive)
- GI50 [32]: 85.7 µM (inactive)
- GI50 [33]: > 100 µM (inactive)
- GI50 [35]: > 100 µM (inactive)
- GI50 [36]: > 100 µM (inactive)
- GI50 [37]: > 100 µM (inactive)
- GI50 [38]: > 100 µM (inactive)
- GI50 [39]: > 100 µM (inactive)
- GI50 [40]: > 100 µM (inactive)
- GI50 [58]: > 100 µM (inactive)
- GI50 [41]: > 100 µM (inactive)
- GI50 [42]: > 100 µM (inactive)
- GI50 [44]: > 100 µM (inactive)
- GI50 [45]: > 100 µM (inactive)
- GI50 [46]: > 100 µM (inactive)
- GI50 [47]: > 100 µM (inactive)
- GI50 [59]: > 100 µM (inactive)
- GI50 [48]: > 100 µM (inactive)
- GI50 [49]: > 100 µM (inactive)
- GI50 [50]: > 100 µM (inactive)
- GI50 [51]: > 100 µM (inactive)
- GI50 [52]: 84.7 µM (inactive)
- GI50 [53]: 72.4 µM (inactive)
- GI50 [54]: > 100 µM (inactive)
- GI50 [55]: 36.2 µM (inactive)
